Source: patent US20230181582A1, “COMPOSITIONS AND METHODS FOR TREATING LUNG INJURIES ASSOCIATED WITH VIRAL INFECTIONS” (Qx Therapeutics Inc., priority 2020, published 2023)

What was measured:
MAP3K2/MAP3K3 [1] = conditions: cited from earlier work; for inhibition of MAP3K2/MAP3K3-mediated phosphorylation of p47phox: substrate p47phox
mouse ALI models [2] = conditions: cited from earlier work
[3] = reported; cited from earlier work
[4] = reported; cited from earlier work; remark: listed apart in the source
MAP3K2/MAP3K3 [5] = assay: Inhibition of MAP3K2/MAP3K3-mediated phosphorylation of substrates (p47phox, MEK5); type: biochemical
mouse ALI models [6] = type: in vivo
[7] = system: mouse coronavirus (MHV-1) induced acute lung injury model; assay: Pulmonary permeability (FITC-albumin in BAL) in mouse coronavirus (MHV-1) induced acute lung injury model; type: in vivo, A/J mice
[8] = system: mouse coronavirus (MHV-1) induced acute lung injury model; assay: Survival and body weight loss in mouse coronavirus (MHV-1) induced acute lung injury model; type: in vivo, A/J mice; conditions: 3 mg/kgbw once daily for 5 days since 24 hr after virus inoculation
neutrophils = conditions: cited from earlier work
patients = conditions: cited from earlier work

Cc1ccc(NC(=O)c2ccc(CN3CCN(C)CC3)cc2)cc1Nc1nccc(-c2cccnc2)n1 [imatinib]
inhibition of MAP3K2/MAP3K3-mediated phosphorylation of p47phox (MAP3K2/MAP3K3 [1]): do not inhibit

COC(=O)c1ccc2c(c1)NC(=O)/C2=C(\Nc1ccc(N(C)C(=O)CN2CCN(C)CC2)cc1)c1ccccc1 [nintedanib, Methyl (3Z)-3-{[(4-{methyl[(4-methylpiperazin-1-yl)acetyl]amino}phenyl)amino](phenyl)methylidene}-2-oxo-2,3-dihydro-1H-indole-6-carboxylate]
inhibition of MAP3K2/MAP3K3-mediated phosphorylation of p47phox (MAP3K2/MAP3K3 [1]): also inhibits | reduction of ALI in mouse models (mouse ALI models [2]): reduce ALI | protein binding [3]: 97.8% | half-life [4]: 10 to 15 h

Cc1ccc(Nc2nccc(N(C)c3ccc4c(C)n(C)nc4c3)n2)cc1S(N)(=O)=O [pazopanib, 5-({4-[(2,3-Dimethyl-2H-indazol-6-yl)methylamino]pyrimidin-2-yl}amino)-2-methylbenzenesulfonamide]
affinity as p47phox substrate-specific inhibitor for MAP3K2 and 3 (MAP3K2/MAP3K3 [5]): low nanomolar | mortality rate in acid and LPS models (mouse ALI models [6]; acid and LPS ALI models): impact mortality rate | prophylactic effect on lung injury in acid and LPS models (mouse ALI models [6]; acid and LPS ALI models, prophylactic): prophylactic effect | ameliorating ALI in the two mouse ALI/ARDS models (mouse ALI models [6]; two mouse ALI/ARDS models, dependent on MAP3K2/3 and ROS production): effective in ameliorating ALI | pulmonary permeability ([7]; 2 doses at 3 mg/kgbw retro-orbital (24, 33 hr after 6000 PFU MHV-1), FIG. 2): significantly reduce | pulmonary permeability ([7]; 3 doses at 3 mg/kgbw retro-orbital (6, 21, 32 hr after 5000 PFU MHV-1), FIG. 1): significantly reduce | pulmonary permeability ([7]; one dose 3 mg/kgbw at 24 hr after virus inoculation, FIG. 3): significantly reduce | pulmonary permeability ([7]; one dose 3 mg/kgbw at 48 hr after virus inoculation, FIG. 4): significantly reduce | pulmonary permeability ([7]; one dose 3 mg/kgbw at 72 hr after virus inoculation, FIG. 5): negligible effect | survival rate ([8]; FIG. 6): does not affect | body weight loss ([8]; FIG. 7): does not affect | inhibition of other substrates of MAP3K2/MAP3K3 such as MEK5 (MAP3K2/MAP3K3 [1]; substrate MEK5): μM levels | inhibition of MAP3K2/MAP3K3-mediated phosphorylation of p47phox (MAP3K2/MAP3K3 [1]): low nM levels | ROS levels (neutrophils): elevates ROS levels | protein binding [3]: > 99.5% | ILD/pneumonitis reported in patients in the clinical trials (patients; clinical trials): 0.1% | patients who developed a pneumothorax (patients; randomized RCC trial): [t]wo of 290 | pneumothorax occurrence in patients treated (patients; randomized STS trial (8/240)): 3% | bioavailability [4]: 14-21% | half-life [4]: 30.9 to 31.9 h
